Assay [1] concerns the target P. fluorescens HPPD (Pseudomonas fluorescens, UniProt A0ACG8AE61). The experiment in a line: Dissociation of enzyme/inhibitor complexes by exchange with 14C-labelled inhibitor (koff; Kd = koff/kon). It counts as binding. An excerpt: (§1) Herbicidal inhibitors of HPPD are found here to have generally low values of koff (in the range less than 0.0003 s^−1, often less than 0.000001 s^−1). It will be appreciated that many suitable methods known in the art for determining such low koff values are suitable for working the current invention. These include measuring rates of exchange of radio or otherwise labelled inhibitors either with or away from the enzyme inhibitor complex. For example enzyme inhibitor complexes can readily be prepared by incubating HPPD preparations with labelled or unlabelled inhibitor and then, after suitable periods, optionally rapidly separating the thus formed enzyme inhibitor complex from excess inhibitor by any suitable method such as ultrafiltration, binding to filters or exchange down a gel filtration column. Exchange reactions with the, thus prepared enzyme inhibitor complex is then initiated by addition of, as appropriate, excess labelled or unlabelled inhibitor. HPPD preparations suitable for use in the methods of the current invention are relatively unpurified, buffer-exchanged, supernatant fractions of spun crude lysates of E. coli strains engineered to express the HPPD enzyme of interest at a level of, typically, about 0.25-10% of the total soluble protein. Many methods such as radiometric, fluorimetric, NMR, fluorescence depolarisation, EPR, Mossbauer, UV/VIS spectrophotometry etc. or phonon resonance can, in principle, be used to monitor the enzyme/ligand exchange reactions and, particularly in this case where the enzyme contains an iron atom at the ligand binding site. Optionally, the monitoring method may be continuous (as, for example, with scintillation proximity/bead-based methods) or, discontinuous, based upon collection of data at various timepoints wherein samples are removed and the bound and unbound label components rapidly separated and quantitated.
Values of koff can suitably be calculated by computer fitting based upon is numerical integration of the exchange data along with information on the active-site concentration of HPPD and upon kon values obtained as described below. […] In any event, koff values are always here calculated from the rate of the major slow exchange reaction. It will be appreciated that within the scope of the current invention many methods of making the desired kinetic comparisons are possible without explicit or rigorous determination of off rates but, based upon the same underlying principle, will achieve the same selection result. […]
Not all test inhibitors are readily available in a radiolabelled form. A more general method of measuring off rates is to first form the complex with unlabelled test inhibitor, to rapidly exchange the complex free of excess unlabelled inhibitor and to then start the exchange reaction by addition of an excess of a standard labelled inhibitor, the kinetic properties of which are already known. The reaction is then monitored and the relative proportions of bound and unbound label determined at various times. […] The latter is the method of choice when the rate of exchange is fast (t½<3 h).
In, variants of the above methods, off rates are measured either in the presence or absence of ˜25% v/v glycerol. In the presence of glycerol values obtained are generally ˜1.5-3× slower than in its absence although sometimes the change is outside this range or, even, in the other direction. Further examples of data obtained are depicted in the following Table 3.
Crude Extracts of recombinant E. coli strains expressing, in the one case, a control HPPD (from Arabidopsis) and, in the other, one or more test HPPD sequences are prepared as described in the preceding example. The titre of active sites and enzyme activity are also defined and measured as described in the preceding examples. […]

The target in assay [2] is Wheat HPPD (Triticum aestivum, UniProt A0A3B6NLC6). Described as above. It counts as binding.
Description: as §1
Values of koff can suitably be calculated by computer fitting based upon is numerical integration of the exchange data along with information on the active-site concentration of HPPD and upon kon values obtained as described below. […] In any event, koff values are always here calculated from the rate of the major slow exchange reaction. It will be appreciated that within the scope of the current invention many methods of making the desired kinetic comparisons are possible without explicit or rigorous determination of off rates but, based upon the same underlying principle, will achieve the same selection result.
The dissociation rates (off rates) of inhibitors selected from Formula 1 and/or 2 and/or 3 and/or 4 from the complexes that they form with test and control HPPD enzymes are suitably measured in a number of ways. Thus, for example, the rates of dissociation of mesotrione, a compound selected from Formula 1 and of the diketonitrile of isoxaflutole, a compound selected from Formula 3 from their respective complexes with, test, wheat HPPD and with, control, Arabidopsis HPPD are compared. The method and results from a typical test are as follows.
^14C mesotrione is of specific activity 1.12 GBq/mmol. This is ˜95% pure radiochemically by TLC and based upon the proportion of material tight-binding to HPPD. Arabidopsis and, (test), wheat HPPD are each diluted to a concentration of ˜0.45 and 0.54 μM, respectively into 1.6 ml of 50 mM Bis-Tris propane buffer at pH 7.0 containing 25% glycerol, 25 mM sodium ascorbate and 3 mg/l of bovine catalase (Sigma C3155˜50,000 units/mg) containing […] ^14C mesotrione and left to react at 25 C for 2.5-3 h. Following this initial binding reaction, exchange reactions are initiated by addition of cold mesotrione to a final concentration of 60 μM and 200 μl aliquots removed at various times to rapid chromatography down a NAP5 gel filtration column equilibrated in 50 mM BTP at pH 7 containing 0.1 M KCl, separation into fractions containing protein-bound or free radiolabel and liquid scintillation counting. […]

Where [3] appears, read: Kd, value obtained + glycerol (in parentheses).
[4] abbreviates: Kd, without glycerol, Kd = koff/kon.
[5] abbreviates: dissociation constant (Kd), in water at pH 7.0 and at 25 C.

SMILES strings stand for the structures. Where “and” joins values, the source holds several entries; their conditions need not be identical. Equal entries are not always repeated. Where two headings read alike, the source gives them in different places.

Sequence of P. fluorescens HPPD (A0ACG8AE61 entry or part of it): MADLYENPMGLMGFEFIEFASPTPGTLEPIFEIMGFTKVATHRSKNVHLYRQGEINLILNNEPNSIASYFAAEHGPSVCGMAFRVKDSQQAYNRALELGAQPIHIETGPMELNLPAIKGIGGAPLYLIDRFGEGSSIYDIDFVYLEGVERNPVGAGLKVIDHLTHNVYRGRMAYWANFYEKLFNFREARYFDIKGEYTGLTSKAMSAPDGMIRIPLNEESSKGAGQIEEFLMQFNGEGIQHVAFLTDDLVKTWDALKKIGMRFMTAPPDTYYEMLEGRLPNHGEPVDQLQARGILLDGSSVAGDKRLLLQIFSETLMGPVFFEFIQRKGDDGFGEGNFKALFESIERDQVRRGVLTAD
Sequence of Wheat HPPD (A0A3B6NLC6 entry or part of it): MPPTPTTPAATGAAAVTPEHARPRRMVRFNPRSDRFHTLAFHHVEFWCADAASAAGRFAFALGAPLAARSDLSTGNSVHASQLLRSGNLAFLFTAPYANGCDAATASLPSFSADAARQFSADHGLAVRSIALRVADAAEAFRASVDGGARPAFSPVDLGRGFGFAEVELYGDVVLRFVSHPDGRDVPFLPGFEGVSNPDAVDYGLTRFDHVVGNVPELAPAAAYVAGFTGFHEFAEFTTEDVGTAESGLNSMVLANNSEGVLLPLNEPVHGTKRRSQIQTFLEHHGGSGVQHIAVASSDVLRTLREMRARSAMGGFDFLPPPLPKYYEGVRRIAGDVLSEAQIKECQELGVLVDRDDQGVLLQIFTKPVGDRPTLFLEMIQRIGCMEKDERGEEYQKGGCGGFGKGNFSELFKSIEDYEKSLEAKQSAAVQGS

For `CS(=O)(=O)c1ccc(C(=O)C2C(=O)CCCC2=O)c([N+](=O)[O-])c1` [Structure I, 2-(Nitro-4-methanesulphonylbenzoyl)-cyclohexane-1,3-dione, reference compound], the Kd is 0.2 nM in assay [1] (setting [3]); 0.114 nM in assay [1] (setting [4]); 6.33 nM in assay [2] (setting [3]); 7.41 nM in assay [2] (setting [4]); 6.5 to 7.5 nM in assay [2] (setting [5]).
Turning to `Cc1nc(C(F)(F)F)ccc1C(=O)C1C(=O)C2CCC(C2)C1=O` (centres unmarked) [Structure II], the Kd in assay [1] (without glycerol, Kd = koff/kon, read-out: Kd) is 2.17 nM; in assay [2] (setting [4]), 6.73 nM; in assay [2] (setting [5]), 6.5 to 7.5 nM. For the same compound, the off-rate (koff) in assay [1] (− glycerol) was 5e-05 s⁻¹; in assay [2] (in water at pH 7.0 and at 25 C, values of Table 3 restated) it was 0.00035 s⁻¹; in assay [2] (pH 7, in water at pH 7.0 and at 25 C, values of Table 3 restated), 0.00025 s⁻¹; in assay [2] (− glycerol), 0.00025 s⁻¹ and 0.00035 s⁻¹. In addition, the “ratio Kd2/Kd4, structure II to structure VII” value in assay [2] stood at 38. Further, in assay [2], the “ratio koff2/koff4, structure II to structure VII” value is 30 and 42.
